For data set [1], the system named is B16F10 melanoma cells. Kind of data set: Cell viability, EZ-Cytox assay. It is filed as cell-based, murine. The settings on record: concentrations ≤25 µM; 24 and 48 h for 2b and 2f, respectively. As for the experimental part:
Before examining the inhibitory effects of compounds 2b and 2f on tyrosinase and melanin biosynthesis, we investigated their cytotoxic effects using murine B16F10 melanoma cells. The cells were treated with different concentrations of 2b or 2f (0, 1, 2.5, 5, 10, or 25 µM) for 24 and 48 h (Figure 7), respectively, and the cell viabilities were assessed using the EZ-Cytox assay.
Cell viability assays of compounds 2b and 2f were performed using B16F10 melanoma cells and the EZ-Cytox assay (EZ-3000, DoGenBio, Seoul, Korea), as previously described. Briefly, cells were seeded at a density of 1 × 10^4 cells/well in a 96-well plate for 24 h, and then were exposed to different concentrations (0, 1, 2.5, 5, 10, or 25 µM) of 2b or 2f and incubated at 37 °C for 24 and 48 h, respectively. EZ-Cytox solution (10 µL) was then added to each well and cells were incubated at 37 °C for 2 h. Absorbances were measured at 450 nm using a microplate reader (VersaMax^TM, Molecular Devices, Sunnyvale, CA, USA). Each assay was performed in triplicate.
Figure 7 The cytotoxic effects of compounds 2b (a) and 2f (b) on B16F10 melanoma cells at concentrations of 1, 2.5, 5, 10, or 25 µM. Cell viabilities were determined using the EZ-Cytox assay and are expressed as percentages versus non-treated controls. Bars present standard errors.

Data set [2] relates to B16F10 melanoma cells. Kind of data set: Melanin content assay in α-MSH-stimulated cells. It is filed as cell-based, murine. Conditions: α-MSH 1.0 µM; for reduction in melanin content: 48 h; for melanin level versus non-treated controls: 48 h (α-MSH alone 3.51-fold). As to the method: Melanin content assays were used to evaluate the inhibitory effects of compounds 2b and 2f on α-MSH-stimulated melanogenesis. […] The inhibitory activities on α-MSH-stimulated melanogenesis were determined by measuring melanin optical densities. The anti-melanogenesis activities of compounds 2b and 2f were assessed using a standard melanin content assay with minor modifications. Briefly, B16F10 cells were seeded at a density of 5 × 10^4/well in a 24-well plate and allowed to adhere to wells in a DMEM solution containing penicillin/streptomycin (100 IU/100 µg/mL) and 10% heat-inactivated FBS in a standard humidified 5% CO2 atmosphere at 37 °C. […] Cells were then rinsed twice with PBS and lysed in 200 µL of 1N NaOH containing 10% dimethyl sulfoxide (DMSO) for 1 h at 60 °C. Lysates were transferred to the wells of a 96-well plate, and melanin absorbances were measured at 405 nm using a microplate reader (VersaMax^TM, Molecular Devices, Sunnyvale, CA, USA). All experiments were conducted three times in triplicate. […] Bars represent standard errors.

Data set [3] addresses mushroom tyrosinase. The data set is described as follows: Mushroom tyrosinase inhibition assay. Conditions: L-tyrosine as substrate; mean of 3 experiments; read-out: IC50 against mushroom tyrosinase. It counts as biochemical. As to the method:
The absorbances of dopachrome produced in each well during incubation was measured at 450 nm using a microplate reader (VersaMax™, Molecular Devices, Sunnyvale, CA, USA). […] All experiments were independently conducted 3 times. To calculate the % inhibition of tyrosinase activity, the following formula was used: % inhibition = […], where A means the optical density of the test samples and B means the optical density of the non-treated control. To calculate the concentration necessary for 50% inhibition of enzyme activity (IC50), the % tyrosinase inhibition of each compound was obtained at 3 or more different concentrations. IC50 values were calculated by constructing a linear regression curve showing the concentration of the (Z)-BTTZ compounds on the x-axis and percentage inhibition on the y-axis. To obtain a negative control dimethyl sulfoxide (DMSO) was added instead of the (Z)-BTTZ compounds.

Data set [4] deals with mushroom tyrosinase. The data set is described as follows: Kinetic study of mushroom tyrosinase inhibition (Lineweaver–Burk plots). Conditions: L-tyrosine 0.5–8.0 mM. It is filed as biochemical. As for the experimental part: To investigate the modes of action of compounds 2b and 2f, a kinetic study was performed using mushroom tyrosinase and different concentrations of L-tyrosine as a substrate in the presence of 2b or 2f. As depicted in Figure 4, inhibitory mechanisms were determined using Lineweaver–Burk plot analysis. The Lineweaver–Burk plot patterns of 2b and 2f were similar. The plots obtained at different concentrations of 2b and 2f merged at single points on the y-axis. Regardless of the concentration, the Vmax values of 2b and 2f were independent of concentration, whereas their KM values increased concentration-dependently.
Compounds 2b or 2f (10 µL, final concentrations: 0, 0.05, 0.1, or 0.2 µM for 2b and 0, 2, 4, or 8 µM for 2f) and mushroom tyrosinase solution (20 µL, 150 units) were added to the wells of a 96-well plate containing aqueous solutions (170 µL) containing L-tyrosine at 0.5, 1.0, 2.0, 4.0, or 8.0 mM (final concentrations), distilled water, and potassium phosphate buffer (final concentration: 14.7 mM, pH 6.5), in the ratio 10:9:10. Initial rates of dopachrome formation in reaction mixtures were calculated by measuring increases in absorbances at 492 nm (ΔOD492/min) using a microplate reader (VersaMax^TM, Molecular Devices, Sunnyvale, CA, USA). […] Modes of tyrosinase inhibition were determined using points of convergence. […]

The test system of data set [5] is cellular tyrosinase in B16F10 melanoma cells. Kind of data set: Cellular tyrosinase activity assay (L-DOPA oxidation) in α-MSH-stimulated cells. The settings on record: α-MSH 1.0 µM; for reduction in cellular tyrosinase activity: 48 h; for cellular tyrosinase activity versus non-treated cells: 48 h (α-MSH alone 2.84-fold). It counts as cell-based, murine. As for the experimental part: The inhibitory activities of compounds 2b and 2f against cellular tyrosinase were assessed using α-MSH-stimulated melanoma cells. […] The inhibitory effects on tyrosinase activity were evaluated by measuring optical densities.
Tyrosinase activities were assessed by determining the L-DOPA oxidation rate, as described previously with minor modifications. […] Cells were then rinsed twice with PBS, exposed to 100 µL of lysis buffer (90 µL of 50 mM phosphate buffer pH 6.8; 5 µL of 2 mM PMSF; 5 µL of 20% Triton), and frozen at −80 °C for 30 min. After defrosting, lysates were centrifuged at 12,000 g for 30 min at 4 °C, and supernatants (80 µL) were mixed with 10 mM L-DOPA (20 µL) in a 96-well plate. Absorbances were measured at 490 nm at 37 °C every 10 min for 1 h using a microplate reader (VersaMax^TM, Molecular Devices, Sunnyvale, CA, USA). All experiments were carried out three times in triplicate.
Bars represent standard errors.

As for `COc1ccc(/C=C2\SC(=O)NC2=S)cc1O` [Compound 2f, (Z)-5-(3-Hydroxy-4-methoxybenzylidene)-4-thioxothiazolidin-2-one], in the data set on B16F10 melanoma cells [1], the “cytotoxic effect on B16F10 cells” value was “Neither 2b nor 2f exhibited any significant cytotoxic effect”. The “reduction in melanin content” value was found to be 14% in the data set on B16F10 melanoma cells [2] (5 µM compound), 46% with B16F10 melanoma cells [2] (10 µM compound) and 60% in the data set on B16F10 melanoma cells [2] (25 µM compound). The entries for the “melanin level versus non-treated controls” value with B16F10 melanoma cells [2] (5 µM compound), in the data set on B16F10 melanoma cells [2] (10 µM compound) and with B16F10 melanoma cells [2] (25 µM compound) were 3.03 fold, 1.88 fold and 1.42 fold, respectively. In addition, the IC50 at mushroom tyrosinase [3] is 15.2 ± 1.68 µM. In the data set with mushroom tyrosinase [4], the “mode of mushroom tyrosinase inhibition” value was “competitive”. The “reduction in cellular tyrosinase activity” value in data set [5] (5 µM compound) was 23%; in data set [5] (10 µM compound) it was 46%; in data set [5] (25 µM compound), 59%. Moreover, the “cellular tyrosinase activity versus non-treated cells” value in data set [5] (5 µM compound) worked out at 2.20 fold; in data set [5] (10 µM compound) it was 1.54 fold; in data set [5] (25 µM compound), 1.18 fold.

Source of the values: paper PMC8400311, “Novel Anti-Melanogenic Compounds, (Z)-5-(Substituted Benzylidene)-4-thioxothiazolidin-2-one Derivatives: In Vitro and In Silico Insights” (Molecules, 2021).
